Results: patent publication US11667602B2, “Compounds and their use” (AstraZeneca AB, priority 2020, dated 2023)
In brackets after ≈: the same amount, converted by molar mass. Like-named read-outs stand apart in the source and are kept apart here.

Experiments:
[1] = Human Plasma Protein Binding (Test B); assay type: in vitro ADME; details: fraction unbound (fu)
Method in brief: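 Values given as % free (fu) in human plasma, using the method of Wernevik et al. (2020). For compounds tested more than once, the arithmetic mean is given.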

[2] = Human Liver Microsomal Stability (Test C); assay type: in vitro ADME; details: human, liver microsomes
Method in brief: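 CLint (μl/min/mg protein) derived from compound depletion in human liver microsomes following a published standardized early-DMPK protocol; replicate determinations given as arithmetic mean.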

[3] = Human Hepatocyte Stability (Test D); assay type: in vitro ADME; details: human, cryopreserved pooled human hepatocytes (LiverPool 10-Donor), geometric mean if run multiple times
Method in brief: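 Intrinsic clearance (μL/min/10^6 cells), derived as kV/N from the log-linear loss of parent compound. Compound incubated at 37 °C with cryopreserved pooled human hepatocytes, 0.25×10^6 cells in 0.25 mL L-15; dosing solution 100 μM in acetonitrile. Singlicate incubations, cassette LC-MS; repeats reported as geometric mean.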

[4] = Rat Hepatocyte Stability (Test E); assay type: in vitro ADME; details: rat, hepatocytes, geometric mean if run multiple times
Method in brief: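 Intrinsic clearance in rat hepatocytes, expressed as μl/min/10^6 cells, following the literature integrated DMPK panel method. Repeat determinations combined as geometric mean.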

[5] = Solubility (Test F); assay type: physicochemical; details: arithmetic mean if run multiple times
Protocol: The assay was conducted according to the Solubility Assay described in pages 164-167 of Wernevik, J. et al., “A Fully Integrated Assay Panel for Early Drug Metabolism and Pharmacokinetics Profiling”, Assay and Drug Development Technologies, 2020, 18(4), 157-179. Data are reported in Table 36 as solubility ([…]. Where the assay was run multiple times for the same compound, the arithmetic mean is reported.

[6] = biological target: T1, human RXFP1 (Homo sapiens, UniProt Q9HBX9); experiment: RXFP1 Hu cAMP (Test A); assay type: cell-based; design: expressed in transfected cells; host or cells: Jump-In T-REx CHO-K1 cells (ThermoFisher), induced with 10 ng/ml doxycycline for 24 h
T1 sequence (Q9HBX9 1-757): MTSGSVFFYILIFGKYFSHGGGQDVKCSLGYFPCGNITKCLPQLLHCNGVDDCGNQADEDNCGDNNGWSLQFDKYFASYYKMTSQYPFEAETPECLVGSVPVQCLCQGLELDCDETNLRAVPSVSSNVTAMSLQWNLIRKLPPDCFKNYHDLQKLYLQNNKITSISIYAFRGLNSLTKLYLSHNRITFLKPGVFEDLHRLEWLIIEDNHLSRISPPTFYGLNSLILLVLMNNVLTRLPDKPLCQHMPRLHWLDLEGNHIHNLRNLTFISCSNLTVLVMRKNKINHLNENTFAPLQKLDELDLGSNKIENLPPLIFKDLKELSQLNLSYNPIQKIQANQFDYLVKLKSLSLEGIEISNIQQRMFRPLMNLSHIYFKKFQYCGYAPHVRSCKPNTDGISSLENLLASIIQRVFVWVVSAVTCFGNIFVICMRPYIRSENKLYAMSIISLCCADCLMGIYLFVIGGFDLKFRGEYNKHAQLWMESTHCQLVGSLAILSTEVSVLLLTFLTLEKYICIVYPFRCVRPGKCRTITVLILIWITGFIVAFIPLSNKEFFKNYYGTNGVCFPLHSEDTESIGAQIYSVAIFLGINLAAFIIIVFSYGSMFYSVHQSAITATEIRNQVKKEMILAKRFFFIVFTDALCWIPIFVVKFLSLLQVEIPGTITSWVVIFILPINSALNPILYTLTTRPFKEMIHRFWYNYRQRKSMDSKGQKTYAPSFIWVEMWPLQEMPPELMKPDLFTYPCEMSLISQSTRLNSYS
Method in brief: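 Competitive HTRF cAMP readout (2 h, room temperature) in CHO-K1 cells stably expressing human RXFP1, induced with 10 ng/ml doxycycline for 24 h; IBMX 0.5 mM final.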

[7] = RXFP1 Hu cAMP, read-out: Test A EC50

Structure (SMILES)	Test B Human Plasma Protein Binding (% free) [1] [% free]	microsomal CLint [2] [µL/min/mg]	hepatocyte CLint at 1 µM [3] [µL/min/1e6 cells]	hepatocyte CLint [4] [µL/min/1e6 cells]	solubility [5] [µM]	Test A Sinf ([6]; RXFP1 Hu cAMP) [%]	EC50 [6, 7] [nM]	EC50 ([6]; Test A EC50, RXFP1 Hu cAMP) [nM]
COc1cc(F)c(O[C@H]2CC[C@@](C)(C(=O)O)CC2)cc1C(=O)Nc1cnccc1C(=O)NCC1(C)CCC1 [Example 150, (1s,4s)-4-(2-Fluoro-4-methoxy-5-((4-(((1-methylcyclobutyl)methyl)carbamoyl)pyridin-3-yl)carbamoyl)phenoxy)-1-methylcyclohexane-1-carboxylic acid]	1.8	< 3	4.9	39	16 (≈ 8.44 µg/mL)	95	460	
COc1cc(F)c(Cc2cnn(CC(=O)O)c2)cc1C(=O)N[C@@H]1[C@H]2CC[C@H](C2)[C@@H]1C(=O)Nc1cccc(S(=O)(=O)C(F)(F)F)c1 [Example 220, 2-(4-(2-Fluoro-4-methoxy-5-(((1S,2R,3S,4R)-3-((3-((trifluoromethyl)sulfonyl)phenyl)carbamoyl)bicyclo[2.2.1]heptan-2-yl)carbamoyl)benzyl)-1H-pyrazol-1-yl)acetic acid]	0.95	10	7.2	14	940 (≈ 613 µg/mL)	109	1500	
COc1cc(C#N)c(O[C@H]2CC[C@@](C)(C(=O)O)CC2)cc1C(=O)N[C@@H]1[C@H]2CC[C@H](C2)[C@@H]1C(=O)NCC1(C)CC1 [Example 98]	13	8.7	4.9	22	810 (≈ 436 µg/mL)	133	55	
COc1cc(F)c(O[C@H]2CC[C@@](C)(C(=O)O)CC2)cc1C(=O)NC1C2CCC(C2)C1C(=O)Nc1cccc(S(=O)(=O)C(F)(F)F)c1 (single isomer, unassigned) [Example 586, (1R,4s)-4-(2-Fluoro-4-methoxy-5-(((1S*,2S*,3R*,4R*)-3-((3-((trifluoromethyl)sulfonyl)phenyl)carbamoyl)bicyclo[2.2.1]heptan-2-yl)carbamoyl)phenoxy)-1-methylcyclohexane-1-carboxylic acid]	0.33	12	4.3	17	190 (≈ 127 µg/mL)	105	1.5	
COc1cc(F)c(O[C@H]2CC[C@@H](C(=O)O)CC2)cc1C(=O)N[C@@H]1[C@H]2CC[C@H](C2)[C@@H]1C(=O)Nc1ccc(C(F)F)cc1 [Example 181, (1S,4s)-4-(5-(((1S,2R,3S,4R)-3-((4-(Difluoromethyl)phenyl)carbamoyl)bicyclo[2.2.1]heptan-2-yl)carbamoyl)-2-fluoro-4-methoxyphenoxy)cyclohexane-1-carboxylic acid]	2.3	13	4.1	48	680 (≈ 391 µg/mL)	95	600	
COc1cc(F)c(O[C@H]2CC[C@@](C)(C(=O)O)CC2)cc1C(=O)N[C@@H]1[C@H]2CC[C@H](C2)[C@@H]1C(=O)N[C@@H]1CCN(S(=O)(=O)C(F)(F)F)C1 [Example 605]	8.6	25	4.3	12	890 (≈ 591 µg/mL)	106	79	
COc1cc(C#N)c(O[C@H]2CC[C@@](C)(C(=O)O)CC2)cc1C(=O)N[C@@H]1[C@H]2CC[C@H](C2)[C@@H]1C(=O)NCC(F)(F)C(F)(F)F [Example 102]	12	4.4	1.9	14	820 (≈ 493 µg/mL)	122	160	
Cc1cc(F)c(O[C@H]2CC[C@@](C)(C(=O)O)CC2)cc1C(=O)N[C@@H]1[C@H]2CC[C@H](C2)[C@@H]1C(=O)NCC1(C)CCC1 [Example 5, (1S,4s)-4-(2-Fluoro-4-methyl-5-(((1S,2R,3S,4R)-3-(((1-methylcyclobutyl)methyl)carbamoyl)bicyclo[2.2.1]heptan-2-yl)carbamoyl)phenoxy)-1-methylcyclohexane-1-carboxylic acid]	2.4	16	15	11	800 (≈ 423 µg/mL)	85		> 1700
COc1cc(C#N)c(O[C@H]2CC[C@@](C)(C(=O)O)CC2)cc1C(=O)N[C@@H]1[C@H]2CC[C@H](C2)[C@@H]1C(=O)NC1(C)CCC1 [Example 90]	14	< 3	< 1	18	800 (≈ 430 µg/mL)	111	140	
CCOc1cc(F)c(O[C@H]2CC[C@@](C)(C(=O)O)CC2)cc1C(=O)N[C@@H]1[C@H]2CC[C@H](C2)[C@@H]1C(=O)NCC1(C)CCC1 [Example 385]	4.1	50	8	19	780 (≈ 436 µg/mL)	106		
COc1cc(F)c(-c2ncc(CCC(=O)O)cn2)cc1C(=O)N[C@@H]1[C@H]2CC[C@H](C2)[C@@H]1C(=O)Nc1cccc(S(=O)(=O)C(F)(F)F)c1 [Example 323, 3-(2-(2-Fluoro-4-methoxy-5-(((1S,2R,3S,4R)-3-((3-((trifluoromethyl)sulfonyl)phenyl)carbamoyl)bicyclo[2.2.1]heptan-2-yl)carbamoyl)phenyl)pyrimidin-5-yl)propanoic acid]	9.3	58	16	21	850 (≈ 565 µg/mL)	108	420	
COc1cc(F)c(-c2cccc(C(=O)O)c2)cc1C(=O)N[C@@H]1[C@H](C(=O)Nc2cccc(S(=O)(=O)C(F)(F)F)c2)[C@H]2C=C[C@@H]1C2 (single isomer, unassigned) [Example 555]	<0.30	21	13	18	560 (≈ 354 µg/mL)		> 50000	
